Tests used:
M2 receptor = target: T1, M2 receptor (Homo sapiens, UniProt P08172); experiment: BRET real-time monitoring of G-protein activation via M2 in HEK293T/17 cells; assay type: cell-based; set-up: expressed in transfected cells; host or cells: HEK293T/17 cells, transient transfection; conditions: for Activation of Gαi/o and Gα15 types: saturating concentration (100 μM; 1 mM for JB-12-2, JB-13-1)
T1 sequence (P08172 1-466): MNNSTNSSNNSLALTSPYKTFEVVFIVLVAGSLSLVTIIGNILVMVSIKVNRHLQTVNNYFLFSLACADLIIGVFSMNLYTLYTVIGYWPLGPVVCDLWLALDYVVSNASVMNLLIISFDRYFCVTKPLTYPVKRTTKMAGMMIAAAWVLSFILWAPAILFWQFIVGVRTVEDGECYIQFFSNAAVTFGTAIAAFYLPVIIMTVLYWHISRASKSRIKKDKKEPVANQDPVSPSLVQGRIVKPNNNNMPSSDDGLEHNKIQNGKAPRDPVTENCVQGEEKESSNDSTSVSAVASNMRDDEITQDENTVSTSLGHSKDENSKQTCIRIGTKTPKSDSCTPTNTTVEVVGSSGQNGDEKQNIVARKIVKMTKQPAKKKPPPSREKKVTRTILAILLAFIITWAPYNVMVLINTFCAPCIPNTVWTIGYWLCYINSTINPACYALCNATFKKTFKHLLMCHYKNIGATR
Procedure: HE/K293T17 cells were obtained from The Global Bioresource Center ATCC (Manassas, VA, USA). Cells were grown in 100 mm petri dishes in Dulbecco’s modified Eagle’s medium (DMEM) supplemented with 10% fetal bovine serum (FBS), MEM non-essential amino acids, 1 mM sodium pyruvate, and antibiotics (100 units/ml penicillin and 100 μg/ml streptomycin) at 37 °C in a humidified incubator containing 5% CO2[41]. Transfection was performed according to Masuho et al.[41]. Culture dishes (3.5 cm) were coated by incubation for 10 min at 37 °C with 1 ml of Matrigel solution [approximately 10 μg/ml of growth factor-reduced Matrigel (BD biosciences; LOT: 2278001) in culture medium]. For transfections, cells were seeded in the 3.5 cm dishes containing the Matrigel solution at a density of 1.7 × 10^6 cells/dish. Four hours later, the cells were transfected with the appropriate expression constructs (total of 5 μg DNA per dish) with the reagents PLUS (5 μl/dish) and Lipofectamine LTX (Thermo Fisher Scientific; LOT: 2640614) (6 μl/dish). The cells were transfected with the Venus 156-239-Gβ1 (0.21 μg), Venus 1–155-Gγ2 (0.21 μg), and masGRK3ct-Nluc (0.21 μg) constructs in addition to the different amounts of constructs for the M2 receptor and Gα of interest. Gα14 subunit was co-transfected with Ric-8A chaperone (0.21 μg). Cells were cotransfected with a pcDNA3.1 construct encoding the catalytic subunit of pertussis toxin (PTX-S1) (0.21 μg) and constructs encoding Gα15, Gα14, Gα11, Gαq to ensure that the small BRET signals were not contaminated by the possible recruitment of endogenous Gαi/o proteins. The empty vector pcDNA3.1 was used to normalize the amount of DNA in each transfection.
To examine the activation of G-protein signalling in live cells, agonist-dependent cellular measurements of BRET between Venus-Gβ1γ2 and masGRK3ct-Nluc were performed as described by Masuho et al.[41]. […]. Cells were harvested by centrifugation at 500×g for 5 min and were resuspended in BRET buffer. About 50,000 to 100,000 cells per well were distributed in 96-well flat-bottomed white microplates (Greiner Bio-One) in a volume of 25 µl. 25 µl of 2× luciferase substrate: Nano-Glo™ luciferase assay substrate (Promega; LOT: 0000527335) dissolved in 250 volumes of BRET buffer was added. BRET measurements were made with a microplate reader (POLARstar Omega, BMG Labtech) equipped with two emission photomultiplier tubes, which enabled the detection of two emissions simultaneously with the highest possible resolution of 20 ms per data point. All measurements were performed at room temperature. The BRET signal was determined by calculating the ratio of the light emitted by Venus-Gβ1γ2 (535 nm with a 30 nm band path width) to the light emitted by masGRK3ct-Nluc (475 nm with a 30 nm band path width). The average baseline value (basal BRET ratio) recorded before stimulation of cells with an agonist was subtracted from the experimental BRET signal values to obtain the ΔBRET ratio.
The ΔBRET ratio from real-time monitoring of G-protein activation was fitted using monophasic association according to Eq. 9.9 Y=Beq×(1-exp-Kobs×x where y is the ΔBRET ratio of the light emitted by Venus-Gβ1γ2 (535/30) to the light emitted by masGRK3ct-Nluc (475/30). Beq is Y-value at the equilibrium expressing the maximal amplitude of ΔBRET ratio, x is time and Kobs is the observed rate of Gα subunit activation.

M3 muscarinic receptor = target: T2, M3 muscarinic receptor (Homo sapiens, UniProt P20309); experiment: [3H]NMS competition binding, membranes from CHO cells expressing M3; conditions: competition with [3H]NMS, mean ± SD, three experiments, read-out: Binding affinity, negative logarithm of Ki (converted)
T2 construct: membranes
Procedure: Cells were cultured as described previously by Randakova et al.[33]. […] The medium was supplemented with 5 mM butyrate for the last 24 h of culture to increase receptor expression. Cells were washed with (phosphate-buffered saline (PBS), mechanically harvested by scraper and centrifugated 1000 × g for 5 min. Cell pellets were kept at − 80 °C.
Membranes were prepared as described previously by Randakova et al.[33]. Cells harvested from twenty 100 mm petri dishes (CHO) or 30 ml of cell suspension (Sf9) were suspended in 20 ml of ice-cold incubation medium (100 mM NaCl, 20 mM Na-HEPES, 10 mM MgCl2, pH 7.4) supplemented with 10 mM EDTA and homogenized on ice by two 30‐s strokes using a Polytron homogenizer (Ultra-Turrax; Janke & Kunkel GmbH & Co. KG, IKA-Labortechnik, Staufen, Germany) with a 30 s pause between strokes. Cell homogenates were centrifuged for 5 min at 1000×g to remove whole cells and cell nuclei. The resulting supernatants were centrifuged for 30 min at 30,000×g. Pellets were suspended in a fresh incubation medium, incubated on ice for 30 min, and centrifuged again. The resulting membrane pellets were kept at − 80 °C until assayed within 10 weeks.
Non-specific binding was determined in the presence of 10 μM unlabelled atropine. Incubations were terminated by filtration through filtration plates multiscreen 96 well Harvest (Merck Millipore) using a Brandel cell harvester (Brandel, Gaithersburg, MD, USA). Filtration plates were dried in a microwave oven, and then 40 μl of liquid scintillator Rotiscint eco plus (Roth) was added. The filtration plates were counted in the Microbeta scintillation counter (PerkinElmer). […] The inhibition constant KI was calculated according to Eq. (2).
Inhibition constants KI were calculated according to Eq. (2).2 KI=IC50/1+D/KD where IC50 is calculated according to Eq.

T2 sequence (P20309 whole entry): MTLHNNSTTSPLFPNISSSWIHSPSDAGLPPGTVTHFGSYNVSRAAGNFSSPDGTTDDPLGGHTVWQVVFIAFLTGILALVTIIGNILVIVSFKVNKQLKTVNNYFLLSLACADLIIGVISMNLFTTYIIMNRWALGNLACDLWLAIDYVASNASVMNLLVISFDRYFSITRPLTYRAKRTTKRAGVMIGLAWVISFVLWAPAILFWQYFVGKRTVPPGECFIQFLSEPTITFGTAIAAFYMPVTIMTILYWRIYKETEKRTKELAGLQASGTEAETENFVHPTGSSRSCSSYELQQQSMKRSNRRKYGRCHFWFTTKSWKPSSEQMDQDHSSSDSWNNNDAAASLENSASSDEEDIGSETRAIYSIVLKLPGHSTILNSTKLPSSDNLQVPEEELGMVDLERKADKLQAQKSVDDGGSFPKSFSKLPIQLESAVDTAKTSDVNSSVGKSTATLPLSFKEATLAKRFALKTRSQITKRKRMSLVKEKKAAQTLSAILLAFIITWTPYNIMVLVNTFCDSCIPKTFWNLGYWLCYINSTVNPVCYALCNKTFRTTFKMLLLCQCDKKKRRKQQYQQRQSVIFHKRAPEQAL

Row | SMILES | Maximal amplitude at Gi1 as % of GoA (M2 receptor; CBC 100 μM) | Activation of Gαi/o and Gα15 types (M2 receptor) | Ki (M3 muscarinic receptor) | Activation of GoA and GoB, % of CBC magnitude (M2 receptor; saturating concentration (JR-6 100 μM, JB-12-2 1 mM))
1 | C[N+](C)(C)CCOC(N)=O [CBC, carbachol, reference compound] | ~ 25% | activated all tested Gαi/o types and promiscuous Gα15 |  | 
2 | c1csc(C[N+]23CCC(CC2)CC3)c1 [JB-8A] |  | did not detect | 14.8 µM | 
3 | C[N+]1(Cc2cccs2)CCOCC1 [JB-12-2] |  |  | 93.3 µM | approximately 12%
4 | COC(=O)C1=CCCN(Cc2cccs2)C1 [JB-13-1] |  | activated only GαoA | 355 µM | 
5 | C[N+]1(Cc2ccc(Cl)s2)CC=CCC1 (stereo not drawn) [PN-152, 1-[(5-chlorothiophen-2-yl)methyl]-1-methyl-1,2,3,6-tetrahydropyridin-1-ium] |  | did not detect |  | 
